Measured values taken from patent US10660903B2, “Orodispersible dosage unit containing an estetrol component” (ESTETRA SPRL, priority 2015, dated 2020).

How the values were obtained:
[1] = tested on: DMBA mammary tumour; details: extent and dose level similar to tamoxifen and to ovariectomy; cited from earlier work
[2] = tested on: estrogen receptors; details: in vitro; cited from earlier work
[3] = humans; cited from earlier work
[4] = Randomized, open-label, two-period, cross-over pharmacokinetic study, sublingual versus oral estetrol; format: in vivo, human; details: 10 mg estetrol; sublingual vs oral; healthy female volunteers
Description: A randomized, open-label, two-period, cross-over, pharmacokinetic study is conducted to compare sublingual bioavailability of 10 mg estetrol administered in one 100 mg tablet with oral availability of estetrol contained in a 83 mg tablet containing 10 mg estetrol. These tablets are administered sublingually and orally to healthy female volunteers under fasting conditions.
Ten healthy female subjects are selected on the basis of the following criteria: age of 45-65 years (inclusive), nonsmokers or past smokers (at least 6 months before dosing), body-mass index (BMI)=18.5 to 30 kg/m^2 (inclusive at the time of the screening).
At the start of the first and the second period of the study, between 07:00 am and 07:28 am, 5 subjects receive a single dose of the sublingual formulation of estetrol by administering one estetrol tablet (tablet weight 100 mg; 10 mg estetrol) and 5 subjects receive a single oral dose of the oral estetrol formulation by administering one estetrol tablet (tablet weight 83 mg; 10 mg estetrol), ingested together with 200 ml water. […]
The estetrol concentration in the collected blood samples is determined by means of HPLC/MS/MS. The concentrations of glucuronided estetrol (D-ring) in the urine samples is also determined with the help of HPLC/MS/MS.

[5] = tested on: production of SHBG; details: in vitro; cited from earlier work
[6] = tested on: human breast cancer cells; details: in the presence of 17β-estradiol; cited from earlier work
[7] = tested on: vagina, uterus, body weight, bone mass, bone strength, hot flushes, ovulation; details: rat models; dose-dependent; cited from earlier work
[8] = Particle size distribution by laser diffraction (Malvern Mastersizer Microplus); format: physicochemical; details: milled estetrol used in the tablets
Description: The particles size distribution of the estetrol particles, and of other particulate materials used in the present process, may suitably be determined by means of laser diffraction. The particle size distribution of the estetrol particles within the solid dosage unit can suitably be determined using spectroscopic techniques, e.g. Raman mapping.
Particle size distribution of estetrol monohydrate is performed using a MALVERN MASTERS IZER MICROPLUS laser particle size analyzer.
• Weigh 1 g of estetrol monohydrate and 1 g of sorbitan trioleate into a flask. • Add 1 litre of n-hexane and mix for at least 1 hour at room temperature • Filter through a 0.45 μm filter.
• Put 100 mg of sample in a 25 mL beaker. • Add some drops of dispersion medium. • Mix carefully with a glass rod to suspend well the powder. • Add 10 mL of dispersion medium. • Perform the analysis with the sample dispersion unit's speed at 3000-3500 rpm.
Particle size measurements are performed three times using the same dispersion. The final result is obtained by averaging the results of the three determinations.

[9] = molecular target: T1, sex hormone binding globulin (SHBG) (Homo sapiens, UniProt P04278); details: cited from earlier work
T1 sequence (P04278 30-402): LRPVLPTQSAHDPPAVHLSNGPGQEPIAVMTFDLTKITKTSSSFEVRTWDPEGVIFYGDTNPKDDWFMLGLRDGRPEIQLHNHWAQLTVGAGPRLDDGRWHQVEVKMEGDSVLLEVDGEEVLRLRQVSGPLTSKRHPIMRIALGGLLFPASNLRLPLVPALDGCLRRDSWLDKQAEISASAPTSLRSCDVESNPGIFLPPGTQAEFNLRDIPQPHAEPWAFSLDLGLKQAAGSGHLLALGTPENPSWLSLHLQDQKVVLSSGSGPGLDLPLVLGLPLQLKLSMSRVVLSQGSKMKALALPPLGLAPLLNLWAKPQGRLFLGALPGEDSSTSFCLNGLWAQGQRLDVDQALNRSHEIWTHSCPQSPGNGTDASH

SMILES: C[C@]12CC[C@@H]3c4ccc(O)cc4CC[C@H]3[C@@H]1[C@@H](O)[C@@H](O)[C@@H]2O [estetrol, 1,3,5 (10)-estratrien-3,15α,16α,17β-tetrol]
- tumour development [1]: prevented tumour development
- binding to the estrogen receptors, selectivity [2]: binds highly selective to the estrogen receptors with preference for the ERa form of the receptor
- oral bioavailability [3]: high and dose-proportional
- terminal elimination half-life [3]: about 28 hours
- impact on a liver function parameter, sublingual versus oral estetrol [4]: less impact
- stimulation of the production of SHBG [5]: does not stimulate
- anti-estrogenic effect [6]: anti-estrogenic effect
- estrogenic effects on vagina, uterus, body weight, bone mass, bone strength, hot flushes and ovulation [7]: exhibited estrogenic effects
- D (v;0.5) (volume median diameter) [8]: ^1 D (v;0.5) = 15 μm
- binding to SHBG [9]: does not bind
